Earlier results as cited in patent US20230193011A1, “COLOR CHANGING POLYMERIC RESIN COMPOSITIONS” (ECOLAB USA INC., priority 2021, published 2023).
Read-outs that look alike come from different tables or passages of the source.

Conditions: for High pH color: color above the transition range; for Low pH color: color below the transition range; for pH start: pH at which the color change begins; for pH end: pH at which the color change ends
[1] = listed as Malachite green - step 2

pKa | High pH color | Low pH color | pH start | pH end | Compound | further results
11.2 | red | yellow | 10.1 | 12.0 | O=C(O)c1cc(N=Nc2ccc([N+](=O)[O-])cc2)ccc1O [Alizarin yellow R] | –
4.7 | blue | yellow | 3.8 | 5.4 | Cc1c(C2(c3cc(Br)c(O)c(Br)c3C)OS(=O)(=O)c3ccccc32)cc(Br)c(O)c1Br [Bromocresol green] | –
6.4 | purple | yellow | 5.2 | 6.8 | Cc1cc(C2(c3cc(C)c(O)c(Br)c3)OS(=O)(=O)c3ccccc32)cc(Br)c1O [Bromocresol purple] | –
– | blue | yellow | 6.0 | 7.6 | Cc1c(C2(c3cc(C(C)C)c(O)c(Br)c3C)OS(=O)(=O)c3ccccc32)cc(C(C)C)c(O)c1Br [Bromothymol blue] | –
– | red | blue-violet | 3.0 | 5.0 | Nc1c(/N=N/c2ccc(-c3ccc(/N=N/c4cc(S(=O)(=O)O)c5ccccc5c4N)cc3)cc2)cc(S(=O)(=O)O)c2ccccc12 [Congo red] | –
– | purple | colorless | 8.2 | 9.8 | Cc1cc(C2(c3ccc(O)c(C)c3)OC(=O)c3ccccc32)ccc1O [Cresolphthalein] | –
– | yellow | blue | 11.4 | 13.0 | O=C1/C(=C2\Nc3ccc(S(=O)(=O)[O-])cc3C2=O)Nc2ccc(S(=O)(=O)[O-])cc21.[Na+].[Na+] [Indigo carmine] | –
3.5 | yellow | red | 3.1 | 4.4 | CN(C)c1ccc(N=Nc2ccc(S(=O)(=O)[O-])cc2)cc1.[Na+] [Methyl orange] | –
5.1 | yellow | red | 4.4 | 6.2 | CN(C)c1ccc(/N=N/c2ccccc2C(=O)O)cc1 [Methyl red] | –
– | greenish- | pale red | 7.3 | 8.7 | O=C1OC(c2ccc(O)c3ccccc23)(c2ccc(O)c3ccccc23)c2ccccc21 [Naphtholphthalein] | –
– | yellow | red | 6.8 | 8.0 | Cc1cc2nc3ccc(N(C)C)cc3nc2cc1N.Cl [Neutral red] | –
9.5 | red-pink | colorless | 8.3 | 10.0 | O=C1OC(c2ccc(O)cc2)(c2ccc(O)cc2)c2ccccc21 [Phenolphthalein] | –
1.7 | yellow | red | 1.2 | 2.8 | Cc1cc(O)c(C(C)C)cc1C1(c2cc(C(C)C)c(O)cc2C)OS(=O)(=O)c2ccccc21 [Thymol blue - step 1, Thymol blue] | High pH color (listed as Thymol blue - step 2): blue; Low pH color (listed as Thymol blue - step 2): yellow; pKa (listed as Thymol blue - step 2): 9.2; pH start (listed as Thymol blue - step 2): 8.0; pH end (listed as Thymol blue - step 2): 9.6
9.2 | blue | colorless | 9.0 | 10.5 | Cc1cc(O)c(C(C)C)cc1C1(c2cc(C(C)C)c(O)cc2C)OC(=O)c2ccccc21 [Thymolphthalein] | –
– | blue | red | 4.5 | 8.3 | Azolitmin [Azolitmin (litmus)] | –
– | green | purple | 4.8 | 5.4 | Methyl purple | –

Compound | pKa | High pH color | Low pH color | pH start | pH end | further results
O=S1(=O)OC(c2cc(Br)c(O)c(Br)c2)(c2cc(Br)c(O)c(Br)c2)c2ccccc21 [Bromophenol blue] | – | blue | yellow | 3.0 | 4.6 | –
Cc1cc(C2(c3ccc(O)c(C)c3)OS(=O)(=O)c3ccccc32)ccc1O [Cresol red - step 1, Cresol red] | – | yellow | red | 0.2 | 1.8 | High pH color (listed as Cresol red - step 2): reddish-; Low pH color (listed as Cresol red - step 2): yellow; pH start (listed as Cresol red - step 2): 7.2; pH end (listed as Cresol red - step 2): 8.8
CN(C)c1ccc(C(=C2C=CC(=[N+](C)C)C=C2)c2ccccc2)cc1 [Malachite green - step 1, Malachite green] | – | green | yellow | 0.2 | 1.8 | High pH color [1]: colorless; Low pH color [1]: green; pH start [1]: 11.5; pH end [1]: 13.2
CN(C)c1ccc(N=Nc2ccccc2)cc1 [Methyl yellow] | 3.3 | yellow | red | 2.9 | 4.0 | –
